According to ChEMBL document CHEMBL1139057, “Rotenoids and flavonoids with anti-invasion of HT1080, anti-proliferation of U937, and differentiation-inducing activity in HL-60 from Erycibe expansa” (Bioorg Med Chem, 2007):
pIC50: −log10 of the molar value.

Experiments:
Assay type in all cases: functional, cell-based
[1] = test system: U-937; assay: Antiproliferative activity against human U937 cells after 24 hrs by WST-8 assay; conditions: U-937, 24 h
[2] = test system: U-937; assay: Antiproliferative activity against human U937 cells after 48 hrs by WST-8 assay; conditions: U-937, 48 h
[3] = test system: U-937; assay: Antiproliferative activity against human U937 cells after 72 hrs by WST-8 assay; conditions: U-937, 72 h

SMILES	pIC50 [1]	pIC50 [2]	pIC50 [3]
COc1cc(OC)c2c(c1)O[C@H](c1ccc(O)cc1)CC2	4.41	4.40	5.00
Oc1ccc2c(c1)OC[C@H]1c3cc4c(cc3O[C@@H]21)OCO4 [MAACKIAIN]	< 4.00	< 4.00	< 4.00
COc1cc(-c2coc3cc(O)cc(O)c3c2=O)ccc1O [3'-O-METHYLOROBOL]	4.17	4.07	4.13
O=C1C=C2OC[C@H]3c4cc5c(cc4O[C@H]3[C@@]2(O)CC1)OCO5	< 4.00	< 4.00	< 4.00
COc1cc(O)cc2c1C(=O)O[C@@H](C)CCCCCCC2 [LASIODIPLODIN]	4.44	4.55	4.70
COc1ccc([C@@H]2CCc3c(OC)cc(OC)cc3O2)c(OC)c1 [ERYCIBENIN F]	< 4.00	< 4.00	< 4.00
COc1cc([C@H]2Oc3cc(O)ccc3C(=O)[C@@H]2O)ccc1O [ERYCIBENIN D]	< 4.00	< 4.00	< 4.00
